The results in this text go back to patent US20230233430A1, “POLYOL ESTERS FROM BIOBASED FEEDSTOCKS FOR USE AS EMOLLIENT IN PERSONAL CARE APPLICATIONS” (priority 2020, published 2023).

A short description of the data set: Decomposition temperature by thermogravimetric analyser (TGA). The class given is physicochemical. Particulars: reactants. The protocol: The decomposition temperature of the reactants and polyol ester of different grades (PE25, PE50 and PE100) were determined using a thermogravimetric analyser (TGA). TGA is a method of thermal analysis by measuring the changes in the mass of a sample over increasing temperatures.

Consider `CCCCCCCC(=O)O` [Caprylic acid], for which the Decomposition temperature was in the range of 150.9 to 193.3 °C. As to `OCC(O)CO` [Glycerin], the Decomposition temperature fell in the range of 178.7 to 220.9 °C. As to `O=C(O)CCCCCCCCC(=O)O` [Sebacic acid], the “Amount of sample decomposed within the temperature range” value turned out to be 95.24 wt. % and the Decomposition temperature fell in the range of 247.9 to 283.9 °C.
